Measurements from ChEMBL document CHEMBL3991601, “The target landscape of clinical kinase drugs” (Science, 2017).
Active and inactive are the calls of the source.

Columns and labels:
[1] = target: T1, Ras-related protein Rab-27A (Homo sapiens, UniProt P51159)
T1 sequence (P51159 whole entry): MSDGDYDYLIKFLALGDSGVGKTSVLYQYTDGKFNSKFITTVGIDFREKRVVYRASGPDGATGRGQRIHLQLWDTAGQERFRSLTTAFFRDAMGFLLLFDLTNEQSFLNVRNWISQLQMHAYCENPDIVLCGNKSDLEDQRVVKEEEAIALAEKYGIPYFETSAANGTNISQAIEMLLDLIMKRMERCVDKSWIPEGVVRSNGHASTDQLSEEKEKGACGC

[2] = target: T2, Serine/threonine-protein kinase TAO1 (Homo sapiens, UniProt Q7L7X3)
T2 sequence (Q7L7X3 whole entry): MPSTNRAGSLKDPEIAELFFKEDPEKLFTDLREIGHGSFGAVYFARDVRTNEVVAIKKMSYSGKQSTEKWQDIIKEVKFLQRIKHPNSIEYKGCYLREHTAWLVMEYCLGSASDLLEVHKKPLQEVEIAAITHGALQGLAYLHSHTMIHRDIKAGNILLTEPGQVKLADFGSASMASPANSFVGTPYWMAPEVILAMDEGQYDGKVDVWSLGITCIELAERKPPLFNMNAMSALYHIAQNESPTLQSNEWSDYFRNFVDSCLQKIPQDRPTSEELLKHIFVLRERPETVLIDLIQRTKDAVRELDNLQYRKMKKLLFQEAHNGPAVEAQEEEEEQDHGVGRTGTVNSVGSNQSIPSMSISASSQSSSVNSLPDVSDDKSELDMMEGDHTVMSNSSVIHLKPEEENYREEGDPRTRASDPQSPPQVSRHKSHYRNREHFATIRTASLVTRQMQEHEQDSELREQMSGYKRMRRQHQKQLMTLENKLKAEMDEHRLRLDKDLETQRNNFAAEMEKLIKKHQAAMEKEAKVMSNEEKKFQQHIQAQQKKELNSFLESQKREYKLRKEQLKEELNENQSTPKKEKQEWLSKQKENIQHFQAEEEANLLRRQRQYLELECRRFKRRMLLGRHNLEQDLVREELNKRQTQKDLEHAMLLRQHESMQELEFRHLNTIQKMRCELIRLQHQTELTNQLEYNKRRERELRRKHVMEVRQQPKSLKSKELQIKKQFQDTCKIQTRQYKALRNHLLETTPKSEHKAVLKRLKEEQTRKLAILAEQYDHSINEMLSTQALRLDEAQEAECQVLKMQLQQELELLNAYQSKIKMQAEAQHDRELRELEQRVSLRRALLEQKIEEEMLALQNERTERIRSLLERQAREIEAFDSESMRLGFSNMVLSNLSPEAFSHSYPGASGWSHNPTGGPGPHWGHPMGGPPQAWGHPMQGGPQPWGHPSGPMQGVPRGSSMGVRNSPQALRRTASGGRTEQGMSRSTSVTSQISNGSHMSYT

[3] = target: Obg-like ATPase 1 (Homo sapiens, UniProt Q9NTK5)
Chain of Obg-like ATPase 1 (Q9NTK5 whole entry, looked up): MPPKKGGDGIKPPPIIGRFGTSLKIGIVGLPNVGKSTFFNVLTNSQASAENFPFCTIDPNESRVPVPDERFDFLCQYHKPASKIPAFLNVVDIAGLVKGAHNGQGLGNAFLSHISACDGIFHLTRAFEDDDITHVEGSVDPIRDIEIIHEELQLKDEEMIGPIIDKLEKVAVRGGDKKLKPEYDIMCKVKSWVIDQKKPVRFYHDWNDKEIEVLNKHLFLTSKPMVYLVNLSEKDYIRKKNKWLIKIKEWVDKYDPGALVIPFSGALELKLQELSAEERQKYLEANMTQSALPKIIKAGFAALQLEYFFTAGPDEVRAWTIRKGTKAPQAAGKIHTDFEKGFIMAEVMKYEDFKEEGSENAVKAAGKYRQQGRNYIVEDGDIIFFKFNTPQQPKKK

[4] = target: T3, General transcription and DNA repair factor IIH helicase subunit XPD (Homo sapiens, UniProt P18074); conditions: read-out: Kd apparent; k-562, colo 205, sk-n-be(2) and mv-4-11
T3 sequence (P18074 whole entry): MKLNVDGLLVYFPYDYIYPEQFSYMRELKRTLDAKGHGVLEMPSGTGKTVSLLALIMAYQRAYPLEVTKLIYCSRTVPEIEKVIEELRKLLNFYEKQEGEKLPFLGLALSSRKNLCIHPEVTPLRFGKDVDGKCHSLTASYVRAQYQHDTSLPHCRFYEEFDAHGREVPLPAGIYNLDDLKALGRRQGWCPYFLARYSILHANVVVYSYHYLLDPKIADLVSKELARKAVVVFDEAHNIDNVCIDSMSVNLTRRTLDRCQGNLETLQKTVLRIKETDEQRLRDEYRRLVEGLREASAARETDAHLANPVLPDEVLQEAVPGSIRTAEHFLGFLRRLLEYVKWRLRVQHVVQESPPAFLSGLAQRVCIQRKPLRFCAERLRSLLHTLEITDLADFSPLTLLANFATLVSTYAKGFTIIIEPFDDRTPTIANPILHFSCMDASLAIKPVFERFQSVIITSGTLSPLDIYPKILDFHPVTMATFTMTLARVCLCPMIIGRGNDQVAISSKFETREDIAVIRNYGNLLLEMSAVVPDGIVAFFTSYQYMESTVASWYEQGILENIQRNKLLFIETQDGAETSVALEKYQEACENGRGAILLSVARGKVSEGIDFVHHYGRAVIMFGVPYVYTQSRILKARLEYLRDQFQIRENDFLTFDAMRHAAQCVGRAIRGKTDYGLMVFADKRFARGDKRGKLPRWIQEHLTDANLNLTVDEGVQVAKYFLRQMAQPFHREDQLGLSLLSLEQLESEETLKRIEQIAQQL

[5] = target: GTP-binding nuclear protein Ran (Homo sapiens, UniProt P62826)
Also: in the data inactive means no Kd found up to 30 µM.

| SMILES | Kd [1] | Kd [2] | Kd [3] | Kd [4] | Kd [5] |
| --- | --- | --- | --- | --- | --- |
| Cc1c(NC(=O)OC[C@@H]2COCCN2)cn2ncnc(Nc3ccc4c(cnn4Cc4cccc(F)c4)c3)c12 [AC-480] | > 30 µM (inactive) | > 30 µM (inactive) | > 30 µM (inactive) | > 30 µM (inactive) | > 30 µM (inactive) |
| Cn1cc(-c2[nH]c3cc(NC(=O)[C@H](N)C4CCCCC4)cc4c3c2C=NNC4=O)cn1 | > 30 µM (inactive) | > 30 µM (inactive) | > 30 µM (inactive) | > 30 µM (inactive) | > 30 µM (inactive) |
| NC[C@@](O)(c1ccc(Cl)cc1)c1ccc(-c2cn[nH]c2)cc1 [AT-13148] | > 30 µM (inactive) | > 30 µM (inactive) | > 30 µM (inactive) | > 30 µM (inactive) | > 30 µM (inactive) |
| CNC(=O)c1cc(COc2nnc(Nc3ccc(Cl)cc3)c3ccoc23)ccn1 [TELATINIB] | > 30 µM (inactive) | > 30 µM (inactive) | > 30 µM (inactive) | > 30 µM (inactive) | > 30 µM (inactive) |
| COc1cc(F)c(F)c(Nc2ccc(I)cc2F)c1NS(=O)(=O)C1(C[C@H](O)CO)CC1 [REFAMETINIB] | > 30 µM (inactive) | > 30 µM (inactive) | > 30 µM (inactive) | > 30 µM (inactive) | > 30 µM (inactive) |
| CC(C)CC(=O)Nc1[nH]nc2c1CN(C(=O)C1CCN(C)CC1)C2(C)C [PHA-793887] | > 30 µM (inactive) | > 30 µM (inactive) | > 30 µM (inactive) | 0.01 µM (active) | > 30 µM (inactive) |
| CC1(COc2ccc3c(c2)ncn3-c2ccc3cccc(N4CCC(N)CC4)c3n2)COC1 [CRENOLANIB] | > 30 µM (inactive) | 1.24 µM | 0.007 µM | > 30 µM (inactive) | > 30 µM (inactive) |
| CNC(=O)c1ccc(Nc2ncc(C(F)(F)F)c(NCc3nccnc3N(C)S(C)(=O)=O)n2)cc1 [DEFACTINIB] | > 30 µM (inactive) | 3.23 µM (active) | > 30 µM (inactive) | 2.26 µM (active) | > 30 µM (inactive) |
| Cc1cc(-c2cc(OC(=O)c3ccccc3)ccc2Cl)cc2nnc(Nc3ccc(OCCN4CCCC4)cc3)nc12 [TG100-801] | > 30 µM (inactive) | > 30 µM (inactive) | > 30 µM (inactive) | > 30 µM (inactive) | > 30 µM (inactive) |
| O=S(=O)(c1cccc2c(O)nccc12)N1CCCNCC1 [HYDROXYFASUDIL] | > 30 µM (inactive) | > 30 µM (inactive) | > 30 µM (inactive) | > 30 µM (inactive) | > 30 µM (inactive) |
| COCCN1CCN(Cc2ccc(-c3n[nH]c4c3C(=O)c3c(NC(=O)NN5CCOCC5)cccc3-4)cc2)CC1 [RGB-286638] | > 30 µM (inactive) | > 30 µM (inactive) | > 30 µM (inactive) | 0.456 µM (active) | > 30 µM (inactive) |
| CCc1cc2c(cc1N1CCC(N3CCOCC3)CC1)C(C)(C)c1[nH]c3cc(C#N)ccc3c1C2=O [ALECTINIB] | > 30 µM (inactive) | > 30 µM (inactive) | > 30 µM (inactive) | > 30 µM (inactive) | > 30 µM (inactive) |
| COc1cc(Nc2ncc(F)c(Nc3ccc4c(n3)N(COP(=O)(O)O)C(=O)C(C)(C)O4)n2)cc(OC)c1OC [FOSTAMATINIB] | > 30 µM (inactive) | > 30 µM (inactive) | > 30 µM (inactive) | > 30 µM (inactive) | > 30 µM (inactive) |
| Cc1ccc(C(=O)Nc2ccc(Oc3cc4cnn(C)c4cc3-c3cn[nH]c3)c(F)c2)c(=O)n1-c1ccc(F)cc1 [MERESTINIB] | > 30 µM (inactive) | > 30 µM (inactive) | > 30 µM (inactive) | > 30 µM (inactive) | > 30 µM (inactive) |
| O=C(NOC[C@H](O)CO)c1ccc(F)c(F)c1Nc1ccc(I)cc1F [MIRDAMETINIB] | > 30 µM (inactive) | > 30 µM (inactive) | > 30 µM (inactive) | > 30 µM (inactive) | > 30 µM (inactive) |
| C[C@@H]1COC(Nc2ccc3ncnc(Nc4ccc(OCc5nccs5)c(Cl)c4)c3c2)=N1 [VARLITINIB] | > 30 µM (inactive) | > 30 µM (inactive) | > 30 µM (inactive) | > 30 µM (inactive) | > 30 µM (inactive) |
| COc1cc2nccc(Oc3ccc(NC(=O)C4(C(=O)Nc5ccc(F)cc5)CC4)cc3)c2cc1OC [CABOZANTINIB] | > 30 µM (inactive) | > 30 µM (inactive) | > 30 µM (inactive) | > 30 µM (inactive) | > 30 µM (inactive) |
| CNC(=O)c1cccc(-c2ccc3c(N4CCOC[C@@H]4C)nc(N4CCOC[C@@H]4C)nc3n2)c1 [VISTUSERTIB] | > 30 µM (inactive) | > 30 µM (inactive) | > 30 µM (inactive) | > 30 µM (inactive) | > 30 µM (inactive) |
| S=C(NCc1ccc2c(c1)OCO2)N1CCN(c2ncnc3c2oc2ccccc23)CC1 [AMUVATINIB] | > 30 µM (inactive) | > 30 µM (inactive) | > 30 µM (inactive) | > 30 µM (inactive) | > 30 µM (inactive) |
| COc1ccc(-c2ccc3ncc4c(c3c2)n(-c2ccc(N3CCNCC3)c(C(F)(F)F)c2)c(=O)n4C)cn1 [BGT-226 FREE BASE] | > 30 µM (inactive) | > 30 µM (inactive) | > 30 µM (inactive) | > 30 µM (inactive) | > 30 µM (inactive) |
| COc1cc2ncnc(Nc3ccc(F)c(Cl)c3)c2cc1NC(=O)/C=C/CN1CCCCC1 [DACOMITINIB ANHYDROUS] | > 30 µM (inactive) | > 30 µM (inactive) | > 30 µM (inactive) | > 30 µM (inactive) | > 30 µM (inactive) |

The next lines start with the values.

| Kd [1] | Kd [2] | Kd [3] | Kd [4] | Kd [5] | SMILES |
| --- | --- | --- | --- | --- | --- |
| > 30 µM (inactive) | > 30 µM (inactive) | > 30 µM (inactive) | > 30 µM (inactive) | > 30 µM (inactive) | NC(=O)c1ccc(N(C(N)=O)c2c(F)cccc2F)nc1-c1ccc(F)cc1F [VX-702] |
| > 30 µM (inactive) | > 30 µM (inactive) | > 30 µM (inactive) | > 30 µM (inactive) | > 30 µM (inactive) | Cc1cc(Nc2nc(N[C@@H](C)c3ncc(F)cn3)ncc2Cl)n[nH]1 [AZD-1480] |
| > 30 µM (inactive) | > 30 µM (inactive) | > 30 µM (inactive) | > 30 µM (inactive) | > 30 µM (inactive) | COc1cccc2cc(-c3nc([C@H]4CC[C@H](C(=O)O)CC4)n4ncnc(N)c34)[nH]c12 [OSI-027] |
| > 30 µM (inactive) | > 30 µM (inactive) | > 30 µM (inactive) | > 30 µM (inactive) | > 30 µM (inactive) | c1cc(OCCN2CCCCC2)cc(-c2n[nH]c3ccc(-c4nc[nH]n4)cc23)c1 [CC-401] |
| > 30 µM (inactive) | > 30 µM (inactive) | > 30 µM (inactive) | > 30 µM (inactive) | > 30 µM (inactive) | COc1cc2ncnc3c2cc1OCCCCCN(C)Cc1ccc(Br)cc1N3 [JNJ-26483327] |
| > 30 µM (inactive) | > 30 µM (inactive) | > 30 µM (inactive) | > 30 µM (inactive) | > 30 µM (inactive) | COc1ccc2c(OCc3nnc4ccc(-c5ccccc5)nn34)ccnc2c1 [AMG-208] |
